Reference: US20170334899A1, “AMINO-SUBSTITUTED ISOTHIAZOLES” (Bayer Pharma Aktiengesellschaft, priority 2014, published 2017)
pIC50: −log10 of the molar value.

Columns and labels:
Type in all cases: cell-based
[1] = system: human cervical tumor cell line HeLa (ATCC CCL-2); experiment: SAC-Formation - Nocodazole-Induced Assay; settings: Homo sapiens, HeLa, 24 h, HeLa cells, nocodazole 0.1 μg/ml together with test compound, decrease of mitotic cells (phospho-histone H3 Ser10)
How it was run: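 Loss of phospho-histone H3 Ser10-positive cells, counted against Hoechst-stained nuclei by high-content imaging, marked mitotic breakthrough. Compounds (0.005–20 μM, 0.5% DMSO) were co-dosed with 0.1 μg/ml nocodazole onto HeLa cells for 24 h at 37 °C. Curves were fitted with a four-parameter Hill equation.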

NCI-H460 = experiment: Proliferation assay (crystal violet), NCI-H460; settings: Homo sapiens, 96 h; NCI-H460 cells; 4 days incubation; crystal violet staining; read-out: IC50 inhibition of proliferation, NCI-H460
Procedure: (§1) Cultivated tumor cells (cells were ordered from ATCC, except HeLa-MaTu and HeLa-MaTu-ADR, which were ordered from EPO-GmbH, Berlin) were plated at a density of 1000 to 5000 cells/well, depending on the growth rate of the respective cell line, in a 96-well multititer plate in 200 μL of their respective growth medium supplemented 10% fetal calf serum. After 24 hours, the cells of one plate (zero-point plate) were stained with crystal violet (see below), while the medium of the other plates was replaced by fresh culture medium (200 μl), to which the test substances were added in various concentrations (0 μM, as well as in the range of 0.001-10 μM; the final concentration of the solvent dimethyl sulfoxide was 0.5%). The cells were incubated for 4 days in the presence of test substances. Cell proliferation was determined by staining the cells with crystal violet: the cells were fixed by adding 20 μl/measuring point of an 11% glutaric aldehyde solution for 15 minutes at room temperature. After three washing cycles of the fixed cells with water, the plates were dried at room temperature. The cells were stained by adding 100 μl/measuring point of a 0.1% crystal violet solution (pH 3.0). After three washing cycles of the stained cells with water, the plates were dried at room temperature. The dye was dissolved by adding 100 μl/measuring point of a 10% acetic acid solution. Absorbtion was determined by photometry at a wavelength of 595 nm. The change of cell number, in percent, was calculated by normalization of the measured values to the aborbtion values of the zero-point plate (=0%) and the absorbtion of the untreated (0 μm) cells (=100%). The IC50 values were determined by means of a 4 parameter fit.

HeLa-MaTu-ADR = experiment: Proliferation assay (crystal violet), HeLa-MaTu-ADR; settings: 96 h; HeLa-MaTu-ADR cells; 4 days incubation; crystal violet staining; read-out: IC50 inhibition of proliferation, HeLa-MaTu-ADR
Procedure: as §1

B16F10 = experiment: Proliferation assay (crystal violet), B16F10; settings: Mus musculus, B16-F10, 96 h; B16F10 cells; 4 days incubation; crystal violet staining; read-out: IC50 inhibition of proliferation, B16F10
Procedure: as §1

DU145 = experiment: Proliferation assay (crystal violet), DU145; settings: Homo sapiens, DU-145, 96 h; DU145 cells; 4 days incubation; crystal violet staining; read-out: IC50 inhibition of proliferation, DU145
Procedure: as §1

Caco-2 = experiment: Proliferation assay (crystal violet), Caco-2; settings: Homo sapiens, 96 h; Caco-2 cells; 4 days incubation; crystal violet staining; read-out: IC50 inhibition of proliferation, Caco2
Procedure: as §1

Row | pIC50 [1] | pIC50 (NCI-H460) | pIC50 (HeLa-MaTu-ADR) | pIC50 (B16F10) | pIC50 (DU145) | pIC50 (Caco-2) | Compound
1 | 7.21 | 6.12 | 6.06 | 5.85 | 5.72 | 5.85 | Cc1nsc(Nc2cnc3ccccc3n2)c1C(=O)Nc1ccc(OC2CCN(CC(F)(F)F)CC2)nc1 [Example 21, 3-Methyl-5-(quinoxalin-2-ylamino)-N-(6-{[1-(2,2,2-trifluoroethyl)piperidin-4-yl]oxy}-pyridin-3-yl)-1,2-thiazole-4-carboxamide]
2 | 6.82 | 6.55 | 6.60 | 6.21 | 6.17 | 6.39 | Cc1nsc(Nc2ccc(C#N)cn2)c1C(=O)Nc1ccc(OC2CCN(C(=O)OC(C)(C)C)CC2)nc1 [Example 27, tert-Butyl 4-({5-[({5-[(5-cyanopyridin-2-yl)amino]-3-methyl-1,2-thiazol-4-yl}-carbonyl)amino]pyridin-2-yl}oxy)piperidine-1-carboxylate]
